Measurements: patent US8470745B2, “Methods and compositions for obtaining and using biologically active multi-protein complexes” (priority 2006, dated 2013)

Experiments:
[1] = test system: NMDAR complexes; assay: Activity test on immobilized NMDAR complexes (immunoblotting and immunofluorescence detection); type: biochemical, rat; settings: Five mM SOV, 30° C. for 1 hour, vs control
Method: Experiments were performed on cortical tissue obtained from 3 week-old Sprague-Dawley rats. All procedures were conducted in strict adherence with the NIH Guide for the Care and Use of Laboratory Animals. Cortical tissue from 21 day-old rats was solubilized using a syringe in solubilization/immunoprecipitation buffer containing 0.1% Triton X-100, 0.2% β-mercaptoethanol, 50 mM Tris-HCl pH 7.5, 5 mM EDTA, 5 mM EGTA, 10 mg/ml of Sigma protease inhibitor cocktail, 1 mM phenylmethylsulfonyl fluoride. The tissue homogenate was centrifuged (15,000 g for 10 min at 4° C.) to remove insoluble material. The supernatantusprenat was kept at 4° C. and used later for immunoprecipitation. Protein A/G pre-coated 96-well plates (Pierce Biotechnology, Rockford, Ill.) were used for immunoprecipitation of active NMDA receptor complexes. The plates were washed with the solubilization/immunoprecipitation buffer and anti-NR1 antibody (20 μg) was added to each well in 100 μL of extraction buffer. Following a 2 hour incubation at room temperature, the wells were rinsed 3 times with solubilization/immunoprecipitation buffer and 100 μL of supernatant were added to each well. Following 4 hours incubation at 4° C., the wells were washed three times with a reaction buffer containing: 0.2% β-mercaptoethanol, 25 mM Tris-HCl pH 7.5, 30 mM MgCl2, 20 mM MnCl2, 0.5 mM DTT.
Fifty μL of reaction buffer, 500 μM ATP, and the agents to be tested were added to each well. The control wells contained 50 μL of reaction buffer alone or in the presence 500 μM ATP. All samples were incubated at 30° C. for 1 hour. […]
For fluorescence detection experiments, black 96-well plates were used to avoid fluorescence spill over. […] Multi-well plates were read on a Cytofluor 2350 fluorescence plate reader using the appropriate filters. […]

[2] = test system: GABAA receptor complexes; assay: Tyrosine phosphorylation in isolated GABAA receptor complexes (Western blotting); type: biochemical; settings: Five mM SOV, 30° C. for 1 hour, hippocampus tissue, vs control
Method: To test the effect of PTP inhibitor SOV on isolated GABA receptor complexes, hippocampus tissue was removed and homogenized with the solubilization/immunoprecipitation buffer described above. GABAA receptor complexes were immunoprecipitated using anti-β2/β3 antibody (Upstate Biotechnology, Lake Placid, N.Y., USA) as described in Example 1. The immobilized complexes were rinsed and solubilization/immunoprecipitation buffer was replaced with reaction buffer. This reaction buffer was added to all the wells. Control wells contained only the reaction buffer or reaction buffer and ATP alone. Five mM of SOV was added to the rest of the wells and incubated at 30° C. for 1 hour. The reaction was stopped with a blocking buffer and samples rinsed and subjected to Western blotting with anti-pTyr and anti-β2/β3 antibodies.

[3] = test system: α-7nACh receptor complexes; assay: Tyrosine phosphorylation in isolated α-7nACh receptor complexes (Western blotting); type: biochemical; settings: Five mM SOV, 30° C. for 1 hour, hippocampus tissue, vs control
Method: To test the effect of PTP inhibitor SOV on isolated a-7nACh receptor complexes, hippocampus tissue was dissected from the brain and homogenized with the solubilization/immunoprecipitation buffer described above, with some modifications. The solubilization buffer contained 0.05% TritonX-100 instead of 0.1% as used in Example 1. Immobilized complexes were rinsed and solubilization/immunoprecipitation buffer was replaced with reaction buffer. This reaction buffer was added to all the wells. Control wells contained only the reaction buffer or reaction buffer and ATP alone. Five mM SOV was added to rest of the wells and incubated at 30° C. for 1 hour. The reaction was stopped with a blocking buffer and samples rinsed and subjected to Western blotting with anti-pTyr, anti-α7 antibodies.

[4] = test system: HCN4 ion channel complexes; assay: Tyrosine phosphorylation in isolated HCN4 ion channel complexes; type: biochemical; settings: Five mM SOV, 30° C. for 1 hour; rat ventricles; vs control
Method: To test the effect of PTP inhibitor SOV, rat ventricles were dissected and homogenized in solubilization/immunoprecipitation buffer and subjected to co-immunoprecipitation by incubation with anti-HCN4 polyclonal antibody (Alpha Diagnostic International, San Antonio, Tex.), as described in Example 1. Immobilized complexes were rinsed and solubilization/immunoprecipitation buffer was replaced with reaction buffer. This reaction buffer was added to all the wells. Control wells contained only the reaction buffer or reaction buffer and ATP alone. Five mM SOV was added to rest of the wells and incubated at 30° C. for 1 hour. The reaction was stopped with blocking buffer and samples were rinsed and subjected to Western blotting or fluorescence analysis using anti-pTyr and anti-HCN4 antibodies.

[5] = immunoblotting and immunofluorescence

[Na+].[Na+].[Na+].[O]=[V]([O-])([O-])[O-] [SOV, sodium orthovanadate]
increased: tyrosine phosphorylation of NR2A/B subunits (ratio of pTyr to NR2A/B) [1, 5] | tyrosine phosphorylation of β2/β3 subunits (ratio of pTyr to β2/β3) [2] | tyrosine phosphorylation of α-7 subunits in the receptor (FIG. 5: ratio of pTyr to α-7) [3] | tyrosine phosphorylation of HCN4 subunits (ratio of pTyr to HCN4) [4]
decreased: amount of NR2A/B in the receptor (ratio NR2A/B to NR1) [1, 5] | amount of PSD-95 in the receptor (ratio PSD-95 to NR1) [1]
